Experiment [1] concerns Rattus norvegicus. The experiment in a line: Tested in vivo for lowest active dose that induced inhibitory effect on gastric emptying in rats. The format is functional, Stomach.
Experiment [2] deals with 3',5'-cyclic-AMP phosphodiesterase 4B (Homo sapiens, UniProt Q07343). The experiment in a line: Inhibitory activity against recombinant phosphodiesterase 4B (PDE4B) of human mononuclear lymphocytes.
The test system of experiment [3] is Mus musculus. The experiment in a line: Evaluated for antiinflammatory activity in the TPA induced ear inflammation model at a dose 1 mg/kg (25 ug). The format is functional.
Experiment [4] has as its system Mus musculus. Description: Evaluated for antiinflammatory activity in the TPA induced ear inflammation model at a dose 2 mg/kg (50 ug). The format is functional.
Experiment [5] concerns the target Phosphodiesterase 4 (Rattus norvegicus, UniProt P14270+P14646+P14644+P54748). Description: Displacement of [3H]rolipram from rat forebrain membrane. The format is tissue-based, Brain. For orientation: Loss of bound radioactivity is the signal in a displacement assay; it reports binding, not function.

3',5'-cyclic-AMP phosphodiesterase 4B, sequence (Q07343 whole entry): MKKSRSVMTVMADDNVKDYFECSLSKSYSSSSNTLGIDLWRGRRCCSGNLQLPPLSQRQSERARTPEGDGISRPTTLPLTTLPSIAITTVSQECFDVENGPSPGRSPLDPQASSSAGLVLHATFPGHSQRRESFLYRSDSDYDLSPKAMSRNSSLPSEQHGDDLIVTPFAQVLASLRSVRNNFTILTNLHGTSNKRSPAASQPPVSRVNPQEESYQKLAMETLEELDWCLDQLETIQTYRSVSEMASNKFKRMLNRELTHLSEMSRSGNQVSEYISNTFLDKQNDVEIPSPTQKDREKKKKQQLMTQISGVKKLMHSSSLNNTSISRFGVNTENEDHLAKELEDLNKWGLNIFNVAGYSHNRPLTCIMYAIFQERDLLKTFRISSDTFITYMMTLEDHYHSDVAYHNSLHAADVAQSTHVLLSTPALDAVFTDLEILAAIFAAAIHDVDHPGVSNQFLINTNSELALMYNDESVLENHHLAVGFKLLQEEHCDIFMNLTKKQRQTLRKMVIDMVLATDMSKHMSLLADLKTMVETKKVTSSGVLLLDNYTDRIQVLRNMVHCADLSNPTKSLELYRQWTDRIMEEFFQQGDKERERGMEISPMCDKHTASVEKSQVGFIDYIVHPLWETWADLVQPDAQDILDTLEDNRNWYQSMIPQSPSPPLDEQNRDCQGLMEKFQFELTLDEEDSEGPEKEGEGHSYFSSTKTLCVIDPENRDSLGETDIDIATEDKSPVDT

`CC(Cn1ccnc1O)c1ccc(OC(F)F)c(OC2CCCC2)c1` (centres undefined) yielded an LAD in experiment [1] of 0.02 mg/kg. Further, the IC50 (as a rule, the midpoint of a concentration-inhibition curve) in experiment [2] was < 10 nM.
`COc1ccc(C(C)Cn2ccnc2O)cc1OC1CCOC1` (centres undefined): in experiment [1], the LAD was 0.02 mg/kg.
In experiment [1], `Oc1nccn1CC1(c2ccc(OC(F)F)c(OC3CCCC3)c2)CC1` gave an LAD of 0.08 mg/kg. In experiment [2], the IC50 amounted to 39.2 nM.
With `COc1ccc(C(C)Cn2ccnc2NC#N)cc1OC1CCCC1` (centres undefined), in experiment [1], the LAD amounted to 1.25 mg/kg. Also, the inhibition in vivo (in general, the percentage by which the read-out fell short of the control) at 1 mg/kg in experiment [3] amounted to 50%. This molecule showed an inhibition in vivo at 2 mg/kg in experiment [4] of 84%.
Consider `COc1ccc(C2CNC(=O)C2)cc1OC1CCCC1` (centres undefined) [ROLIPRAM], for which the LAD in experiment [1] came out at 0.04 mg/kg. Moreover, 1 mg/kg produced 6% inhibition in vivo in experiment [3]. The molecule further had an inhibition in vivo at 2 mg/kg in experiment [4] of 43%.
In experiment [1], `COc1ccc(C(C)Cn2ccnc2O)cc1OC1CCCC1` (centres undefined) registered an LAD of 0.01 mg/kg. For the same molecule, the IC50 in experiment [2] was found to be 24.1 nM.
The molecule `COc1ccc(C(C)Cn2ccnc2O)cc1OC1CC2CCC1C2` (centres undefined) registered an LAD in experiment [1] of 0.01 mg/kg. Also, the IC50 in experiment [2] was 21 nM. At 1 mg/kg the inhibition in vivo in experiment [3] was 34%. For the same molecule, the inhibition in vivo at 2 mg/kg in experiment [4] was 90%.
In turn, `COc1ccc(C(O)Cn2ccnc2O)cc1OC1Cc2ccccc2C1` (centres undefined) had an LAD in experiment [1] of 0.31 mg/kg. Further, the IC50 in experiment [2] is 399 nM.
The corresponding values for `COc1ccc(C(=O)Cn2ccnc2O)cc1OC1CCCC1` are 1.25 mg/kg and 486 nM.
As to `COc1ccc(C(C)Cn2ccnc2NC#N)cc1OC1Cc2ccccc2C1` (centres undefined), the LAD in experiment [1] was 2.5 mg/kg. In experiment [5], the Ki – broadly, the dissociation constant of the complex between target and ligand, obtained from inhibition or displacement – was found to be 180 nM. At 1 mg/kg the inhibition in vivo in experiment [3] was 51%. This molecule showed an inhibition in vivo at 2 mg/kg in experiment [4] of 82%.
With `COc1ccc([C@H](C)Cn2ccnc2NC#N)cc1OC1Cc2ccccc2C1`, in experiment [1], the LAD is >5 mg/kg. In experiment [5], this molecule yielded a Ki of 220 nM. In experiment [3], this molecule had an inhibition in vivo at 1 mg/kg of 54%.
Take `CC(Cn1ccnc1NC#N)c1ccc(OC(F)F)c(OCCCCCc2ccccc2)c1` (centres undefined): the LAD in experiment [1] is >1.25 mg/kg. For the same molecule, the IC50 in experiment [2] stood at 28.4 nM. 1 mg/kg produced 41% inhibition in vivo in experiment [3]. In addition, testing at 2 mg/kg in experiment [4] gave an inhibition in vivo of 69%.
With `COc1ccc(C(C)(F)Cn2ccnc2O)cc1OC1CCOC1` (centres undefined), the LAD in experiment [1] is 0.31 mg/kg. Further, the IC50 in experiment [2] amounted to 327 nM.
Turning to `COc1ccc(C(C)Cn2ccnc2NC#N)cc1OC1CCOC1` (centres undefined), in experiment [1], the LAD was >1.25 mg/kg. Also, at 1 mg/kg the inhibition in vivo in experiment [3] was 38%. Moreover, 2 mg/kg produced 71% inhibition in vivo in experiment [4].
`COc1ccc(CCn2ccnc2O)cc1OC1CCCC1` displayed an LAD in experiment [1] of 0.08 mg/kg. For the same molecule, the concentration for half-maximal inhibition (IC50) in experiment [2] amounted to 110 nM. Further, at 1 mg/kg the inhibition in vivo in experiment [3] was 32%. This molecule also had an inhibition in vivo at 2 mg/kg in experiment [4] of 81%.
Consider `COc1ccc(C(C)Cn2ccnc2NC#N)cc1OCCC1Cc2ccccc2C1` (centres undefined), for which the LAD in experiment [1] was >1.25 mg/kg. For the same molecule, the half-maximal inhibitory concentration (IC50) in experiment [2] amounted to 67.6 nM.
As to `COc1ccc(C(C)(O)Cn2ccnc2O)cc1OC1CCOC1` (centres undefined), in experiment [1], the LAD came out at 0.31 mg/kg. Further, the IC50 in experiment [2] is > 1000 nM.
With `COc1ccc(C(C)C(C)n2ccnc2O)cc1OC1CCCC1` (centres undefined), the IC50 in experiment [2] is 277 nM.
Regarding `COc1ccc(C(C)Cn2ccnc2NC#N)cc1OCC1CC1` (centres undefined), the LAD in experiment [1] came out at 1.25 mg/kg. The molecule further came in with an inhibition in vivo at 1 mg/kg in experiment [3] of 38%. Further, in experiment [4], the inhibition in vivo at 2 mg/kg is 78%.
`COc1ccc(C2(Cn3ccnc3O)CC2)cc1OC1CCCC1`: the LAD in experiment [1] is 0.63 mg/kg. In experiment [2], the IC50 is 341 nM. The same molecule had an inhibition in vivo at 1 mg/kg in experiment [3] of 18%. In experiment [4], the inhibition in vivo at 2 mg/kg came out at 66%.
In the case of `COc1ccc(C(=O)Nc2c(Cl)cncc2Cl)cc1OC1CCCC1`, the LAD in experiment [1] came to 0.5 mg/kg. Moreover, the inhibition in vivo at 1 mg/kg in experiment [3] is 43%. Besides, in experiment [4], the inhibition in vivo at 2 mg/kg was determined as 69%.
`COc1ccc(C(C)(C)Cn2ccnc2O)cc1OC1CCCC1` displayed an LAD in experiment [1] of 0.63 mg/kg. The IC50 in experiment [2] is 367 nM.
Taken in the same sequence, the figures for `COc1ccc(C(F)Cn2ccnc2O)cc1OC1Cc2ccccc2C1` (centres undefined) were 0.08 mg/kg and 24.3 nM.
For `COc1ccc([C@]2(C#N)CC[C@@H](C(=O)O)CC2)cc1OC1CCCC1` [CILOMILAST], the LAD in experiment [1] stood at 5 mg/kg. Also, the inhibition in vivo at 1 mg/kg in experiment [3] amounted to 69%. Besides, in experiment [4], testing at 2 mg/kg gave an inhibition in vivo of 88%.
Taken in the same sequence, the figures for `CC(Cn1ccnc1NC#N)c1ccc(OC(F)F)c(OCC2CC2)c1` (centres undefined) were 0.08 mg/kg, 22% and 52%.
In experiment [1], `COc1ccc(C(C)Cn2ccnc2O)cc1OCC1CC1` (centres undefined) came in with an LAD of 0.01 mg/kg. In addition, the Ki in experiment [5] is listed as 3.5 nM. Moreover, in experiment [2], the IC50 turned out to be 85.8 nM. In experiment [3], this molecule registered an inhibition in vivo at 1 mg/kg of 56%. The molecule also showed an inhibition in vivo at 2 mg/kg in experiment [4] of 74%.
The molecule `COc1ccc([C@@H](C)Cn2cc[nH]/c2=N\C#N)cc1OC1Cc2ccccc2C1` had an LAD in experiment [1] of 2.5 mg/kg. Besides, the Ki in experiment [5] turned out to be 63 nM. This molecule also registered an inhibition in vivo at 1 mg/kg in experiment [3] of 56%.
For `CC(Cn1ccnc1O)c1ccc(OC(F)(F)F)c(OC2CCCC2)c1` (centres undefined), the LAD in experiment [1] is 1.25 mg/kg. The IC50 in experiment [2] was > 1000 nM.
As to `COc1ccc(C(C)Cn2ccnc2NC#N)cc1OCCCCCc1ccccc1` (centres undefined), in experiment [1], the LAD was >1.25 mg/kg. In addition, the inhibition in vivo at 1 mg/kg in experiment [3] turned out to be 36%. In addition, testing at 2 mg/kg in experiment [4] gave an inhibition in vivo of 77%.

For the origin of these results see ChEMBL document CHEMBL1135075, “Synthesis and biological evaluation of imidazol-2-one and 2-cyanoiminoimidazole derivatives: novel series of PDE4 inhibitors” (Bioorg Med Chem Lett, 2002).
